# Laboratory results taken from patent US11116757B2 (priority 2015, dated 2021).
# Where two headings read alike, the source gives them in different places.
# Legend:
# [1] = target: DCN1-UBC12 interaction (Homo sapiens (Human), UniProt Q96GG9); test: biochemical; format: binding; conditions: for inhibition of the DCN1-UBC12NAc interaction: TR-FRET assay
# [2] = system: U-2 OS cells; test: Electron microscopy of compound treated cells; format: cell-based
# [3] = target: Dcn1P-mediated co-E3 activity (Homo sapiens (Human), UniProt Q96GG9); test: Pulse-chase neddylation assay (NEDD8 transfer from UBC12 to CUL2CTD); format: biochemical; conditions: for inhibition of labeled NEDD8 transfer from UBC12 to CUL2CTD-RBX2: pulse-chase neddylation assay
# Dcn1P-mediated co-E3 activity, sequence (Q96GG9 whole entry, looked up): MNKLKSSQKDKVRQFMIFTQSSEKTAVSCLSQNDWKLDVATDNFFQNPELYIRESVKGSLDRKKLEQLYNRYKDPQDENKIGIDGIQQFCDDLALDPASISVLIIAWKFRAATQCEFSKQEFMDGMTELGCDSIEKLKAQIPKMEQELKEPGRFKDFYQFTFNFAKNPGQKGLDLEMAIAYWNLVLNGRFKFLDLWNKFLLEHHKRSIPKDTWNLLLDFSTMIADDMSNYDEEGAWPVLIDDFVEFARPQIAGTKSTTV
# Dcn1P-mediated co-E3 activity, sequence (Q13617 whole entry partner, looked up): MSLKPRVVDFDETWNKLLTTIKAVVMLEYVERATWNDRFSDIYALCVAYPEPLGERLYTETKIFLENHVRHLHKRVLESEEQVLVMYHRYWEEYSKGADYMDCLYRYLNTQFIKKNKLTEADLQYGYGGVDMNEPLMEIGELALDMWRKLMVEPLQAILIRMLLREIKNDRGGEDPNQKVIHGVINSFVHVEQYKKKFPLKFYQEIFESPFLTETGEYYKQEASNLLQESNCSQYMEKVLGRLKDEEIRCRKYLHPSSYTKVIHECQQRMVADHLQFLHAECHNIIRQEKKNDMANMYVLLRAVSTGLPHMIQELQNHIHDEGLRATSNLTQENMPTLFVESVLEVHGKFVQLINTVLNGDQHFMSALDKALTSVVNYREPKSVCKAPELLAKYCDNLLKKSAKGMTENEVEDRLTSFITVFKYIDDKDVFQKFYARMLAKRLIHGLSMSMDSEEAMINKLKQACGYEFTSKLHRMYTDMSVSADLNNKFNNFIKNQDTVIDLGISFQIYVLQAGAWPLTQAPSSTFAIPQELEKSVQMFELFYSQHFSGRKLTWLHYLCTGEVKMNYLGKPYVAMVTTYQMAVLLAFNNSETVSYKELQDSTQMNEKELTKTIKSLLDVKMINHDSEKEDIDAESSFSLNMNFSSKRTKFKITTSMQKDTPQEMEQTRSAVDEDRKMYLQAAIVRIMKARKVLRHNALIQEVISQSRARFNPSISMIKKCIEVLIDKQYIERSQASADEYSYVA
# Dcn1P-mediated co-E3 activity, sequence (Q9UBF6 whole entry partner, looked up): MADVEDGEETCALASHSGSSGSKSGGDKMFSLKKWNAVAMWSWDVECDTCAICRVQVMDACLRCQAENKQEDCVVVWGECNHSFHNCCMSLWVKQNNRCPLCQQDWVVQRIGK
# Method: Compound inhibition of Dcn1^P-mediated co-E3 activity was monitored using pulse-chase assays to exclusively monitor effects of Nedd8 transfer to Cul2 without sensing earlier steps in the reaction. […] Load reactions were quenched by the addition of EDTA to 50 mM and incubated on ice for 5 minutes. Chase reactions involved dilution of the UBC12˜[^FAM]-Nedd8 thioester conjugate to 40 nM in 50 mM Tris, 50 mM NaCl, 50 mM EDTA, 0.5 mg/mL BSA, pH 6.8. […] Fluorescent gels were visualized by scanning on a Typhoon imager (GE).
# [4] = format: in vitro ADME; conditions: Table 10
# Method: Test compound stock (10 mM in DMSO, 3 μL) was mixed with citrate phosphate buffered saline (597 μL) to make diluted test compound. Diluted test compound (150 μL) was transferred to a UV plate (pION Inc., Woburn, Mass.) and the UV spectrum (250 nm-500 nm) was read as the reference plate. Each well of the donor plate in a PAMPA sandwich plate (pION Inc., Woburn, Mass.) contained a filter that was painted on one side with 4 μL GIT lipid (pION Inc., Woburn, Mass.) to form a membrane. Each well in the acceptor plate in a PAMPA sandwich, preloaded with magnetic stir bars, was filled with acceptor solution buffer (200 pION Inc., Woburn, Mass.). The donor plate was filled with diluted test compound (180 The PAMPA sandwich was assembled by placing the donor plate over the acceptor plate. The combined PAMPA plate was placed on a pIon Gut-Box™, a stirring apparatus that allows equilibrium to be reached quicker. Aqueous Boundary Layer of the pIon Gut-Box™ was set to 40 μm and the compounds stirred for 30 minutes. The UV spectrum (250 nm-500 nm) of the donor and the acceptor were read. The permeability coefficient was calculated using PAMPA evolution 96 command software (pION Inc., Woburn, Mass.) based on the whole spectrum measured from the reference plate, the donor plate, and the acceptor plate. All compounds were tested in triplicates.
# [5] = physchem; conditions: aqueous buffer, kinetic from dmso stock
# Method: Solubility assays were carried out on a Biomek FX lab automation workstation (Beckman Coulter, Inc., Fullerton, Calif.) using μSOL Evolution software (pION Inc., Woburn, Mass.). […] Compound stock (10 mM in DMSO, 10 μL) was added to 1-propanol (190 μL) to make a reference stock plate. […] Test compound stock (10 mM, 6 μL) was added to buffer (594 μL) in a 96-well storage plate and mixed. […] The suspension was then filtered through a 96-well filter plate (pION Inc., Woburn, Mass.). […] Calculation was carried out by μSOL Evolution software based on the AUC (area under curve) of UV spectrum of the sample plate and the reference plate. All compounds were tested in triplicate.
# [6] = Table 10, R101 series, read-out: IC50 (μM) (TR-FRET)
# [7] = Table 6, commercial compounds, read-out: TR-FRET IC50
# [8] = Table 4, commercial compounds, read-out: TR-FRET IC50
# [9] = Table 7, commercial compounds, read-out: TR-FRET IC50
# DCN1-UBC12 interaction, sequence (Q96GG9 60-248 limits assumed): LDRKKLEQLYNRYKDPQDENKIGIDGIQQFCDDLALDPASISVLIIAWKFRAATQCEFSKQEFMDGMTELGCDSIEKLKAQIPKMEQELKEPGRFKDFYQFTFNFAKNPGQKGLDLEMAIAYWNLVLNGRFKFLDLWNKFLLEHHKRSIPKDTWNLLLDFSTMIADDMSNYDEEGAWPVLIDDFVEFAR
molecule,measurement,setting,value
C=CC(=O)NCc1cccc(CN(C(=O)Nc2cccc(C(F)(F)F)c2)C2CCN(C(C)CCC)CC2)c1 (centres unmarked) [A3],IC50,[1]; read-out: TR-FRET IC50,0.018 µM
same,vacuolar structures by electron microscopy,[2],presence of large vacuolar structures
Cc1cccc(C(=O)NC2C(=O)Nc3c(c(C)nn3-c3ccccc3)C2c2ccc(F)cc2)c1 (centres unmarked) [F1],inhibition of labeled NEDD8 transfer from UBC12 to CUL2CTD-RBX2,[3],dose-dependent inhibition
O=C(Nc1cccc(C(F)(F)F)c1)N(Cc1ccccc1)C1CCN(Cc2ccc3c(c2)OCO3)CC1 [compound 26],IC50,[1]; [6],7 µM
same,Pampa (×10^−6 cm/s),[4],>2200 ×10^−6 cm/s
same,solubility kinetic,[5],< 0.1 µM
O=C(Nc1cccc(C(F)(F)F)c1)N(Cc1ccccc1)C1CCN(Cc2ccc3c(c2)OCCO3)CC1 [compound 27],IC50,[1]; [6],7.3 µM
same,Pampa (×10^−6 cm/s),[4],>2200 ×10^−6 cm/s
same,solubility kinetic,[5],1 ± 1.3 µM
O=C(Nc1cccc(C(F)(F)F)c1)N(Cc1ccccc1)C1CCN(Cc2cccnc2)CC1 [compound 23],IC50,[1]; [6],12 µM
same,Pampa (×10^−6 cm/s),[4],>2200 ×10^−6 cm/s
same,solubility kinetic,[5],30 ± 1.1 µM
O=C(Nc1cccc(C(F)(F)F)c1)N(Cc1ccccc1)C1CCN(Cc2ccc(F)cc2)CC1 [compound 24],IC50,[1]; [6],9.2 µM
same,Pampa (×10^−6 cm/s),[4],>2200 ×10^−6 cm/s
same,solubility kinetic,[5],0.9 ± 0.1 µM
"CCCN1CCN(C(=O)c2cnn(-c3nccc(-c4cccs4)n3)c2C(C)C)CC1 [E1, (5-Isopropyl-1-(4-(Thiophen-2-yl)Pyrimidin-2-yl)-1H-Pyrazol-4-yl)(4-Propylpiperazin-1-yl)Methanone]",inhibition of the DCN1-UBC12NAc interaction,[1],dose-dependent inhibition
same,IC50,[1]; [7],1.07 µM
same,inhibition of labeled NEDD8 transfer from UBC12 to CUL2CTD-RBX2,[3],dose-dependent inhibition
CCOc1cc(CN2CCC(N(Cc3ccccc3)C(=O)Nc3cccc(C(F)(F)F)c3)CC2)cc(Cl)c1O [compound 25],Pampa (×10^−6 cm/s),[4],110 ± 190 ×10^−6 cm/s
same,solubility kinetic,[5],0.4 ± 0.1 µM
"O=C(Nc1cccc(C(F)(F)F)c1)NC1CCN(Cc2ccccc2)CC1 [B7, 1-(1-Benzylpiperidin-4-yl)-3-(3-(Trifluoromethyl)Phenyl)Urea]",inhibition of the DCN1-UBC12NAc interaction,[1],dose-dependent inhibition
same,inhibition of DCN1 dependent neddylation,[3]; dependence on presence of DCN1,specifically inhibits DCN1 dependent nedylation
same,inhibition of labeled NEDD8 transfer from UBC12 to CUL2CTD-RBX2,[3],dose-dependent inhibition
"O=C(Nc1cccc(-n2cccc2)c1)NC1CCN(Cc2ccccc2)CC1 [A282, 1-(3-(1H-Pyrrol-1-yl)Phenyl)-3-(1-Benzylpiperidin-4-yl)Urea]",IC50,[1]; read-out: TR-FRET IC50,> 71.3 µM
Cc1ccc(C(=O)N2CCC(c3nc4ccccc4s3)CC2)cc1 [D3],IC50,[1]; read-out: TR-FRET IC50,14.7 µM
CCCC(C)N1CCC(N(Cc2ccccc2)C(=O)Nc2cc(C)oc2C(F)(F)F)CC1 (centres unmarked) [A255],IC50,[1]; read-out: TR-FRET IC50,> 60.2 µM
CC(C)c1c(C(=O)N2CCN(C(C)C)CC2)cnn1-c1nccc(-c2cccs2)n1 [E62],IC50,[1]; [7],> 77 µM
Cc1cc(C)cc(C(=O)N2CCCC(c3nc4ccccc4s3)C2)c1 (centres unmarked) [D32],IC50,[1]; read-out: TR-FRET IC50,> 67.6 µM
CC1CN(Cc2ccccc2)CCC1N(C)C(=O)Nc1cccc2cnccc12 (centres unmarked) [B23],IC50,[1]; read-out: TR-FRET IC50,> 113 µM
CCCC(C)N1CCC(N(CCCNC(=O)CCl)C(=O)Nc2cccc(C(F)(F)F)c2)CC1 (centres unmarked) [A245],IC50,[1]; read-out: TR-FRET IC50,> 53.9 µM
CCCC(C)N1CCC(N(Cc2ccccc2)C(=O)Nc2cc(Cl)c(Cl)cc2F)CC1 (centres unmarked) [A78],IC50,[1]; read-out: TR-FRET IC50,0.801 µM
CCCC(C)N1CCC(N(Cc2ccccc2)C(=O)Nc2ccc(C)c(C)c2)CC1 (centres unmarked) [A31],IC50,[1]; read-out: TR-FRET IC50,0.184 µM
Cc1ccccc1CN1CCC(NC(=O)Nc2cccc(C(F)(F)F)c2)CC1 [A135],IC50,[1]; read-out: TR-FRET IC50,3.35 µM
O=C(Nc1cccc(C(F)(F)F)c1)C1CCN(C(=O)Cc2ccccc2)CC1 [C12],IC50,[1]; [8],> 65.9 µM
O=C(Nc1ccc(F)cc1)C1CCN(C(=O)c2ccco2)CC1 [C31],IC50,[1]; [8],> 67.6 µM
CCN1CCC(N(Cc2ccc(F)cc2)C(=O)Nc2ccccc2Cl)CC1 [B97],IC50,[1]; read-out: TR-FRET IC50,> 67.6 µM
Cc1ccccc1C(=O)N1CCC(C(=O)Nc2c(F)cccc2F)CC1 [C36],IC50,[1]; [8],> 67.6 µM
O=C(Nc1ccc(Cl)c(Cl)c1)C1CCN(C(=O)c2ccco2)CC1 [C40],IC50,[1]; [8],> 67.6 µM
CCCC(C)N1CCC(N(Cc2ccccc2)C(=O)Nc2cc(F)c(F)c(F)c2)CC1 (centres unmarked) [A59],IC50,[1]; read-out: TR-FRET IC50,0.355 µM
C=CS(=O)(=O)NCc1ccccc1CN(C(=O)Nc1cccc(C(F)(F)F)c1)C1CCN(C(C)CCC)CC1 (centres unmarked) [drawing 850],IC50,[1]; read-out: TR-FRET IC50,< 0.01 µM
"O=C(Nc1cccc(C(F)(F)F)c1)NC1CCN(Cc2cccc(F)c2)CC1 [A183, 1-(1-(3-Fluorobenzyl)Piperidin-4-yl)-3-(3-(Trifluoromethyl)Phenyl)Urea]",IC50,[1]; read-out: TR-FRET IC50,21.9 µM
O=C(Nc1cccc(C(F)(F)F)c1)N1CCN(C(c2ccccc2)c2ccccc2)CC1 [B40],IC50,[1]; read-out: TR-FRET IC50,> 62.8 µM
CC(=O)N1CCN(C(=O)c2cnn(-c3ncc(C)c(-c4cccs4)n3)c2C2CC2)CC1 [E50],IC50,[1]; [7],> 67.6 µM
CCN(CC)CCN(CC)C(=O)c1cnn(-c2nccc(-c3cccs3)n2)c1C1CC1 [E2],IC50,[1]; [7],4.53 µM
CC(=O)N1CCC(C(=O)Nc2cccc(C)c2C)CC1 [C41],IC50,[1]; [8],> 67.6 µM
CCCC(C)N1CCC(N(Cc2ccccc2)C(=O)Nc2ccc(Br)cc2C)CC1 (centres unmarked) [A165],IC50,[1]; read-out: TR-FRET IC50,9.43 µM
COCCN1CCN(C(=O)c2cnn(-c3ncc(C)c(-c4cccs4)n3)c2C2CC2)CC1 [E30],IC50,[1]; [7],> 67.6 µM
C=CC(=O)NCc1ccccc1CN(C(=O)Nc1cccc(C(F)(F)F)c1)C1CCN(C(C)CCC)CC1 (centres unmarked) [drawing 846],IC50,[1]; read-out: TR-FRET IC50,< 0.01 µM
CC1CN(Cc2ccccc2)CCC1N(C)C(=O)NC1C(=O)N(c2ccccc2)N(C)C1C (centres unmarked) [B27],IC50,[1]; read-out: TR-FRET IC50,> 28.1 µM
O=C(Nc1cccc2ccccc12)NC1CCN(Cc2ccccc2)CC1 [B39],IC50,[1]; read-out: TR-FRET IC50,> 61.8 µM
Cc1nn(C)c2c1C(c1cccc(Cl)c1)C(NC(=O)c1ccc(Cl)cc1)C(=O)N2 (centres unmarked) [F28],IC50,[1]; [9],> 67.6 µM
CCCC(C)N1CCC(N(Cc2ccccc2)C(=O)Nc2ccc(Cl)nc2)CC1 (centres unmarked) [A277],IC50,[1]; read-out: TR-FRET IC50,> 68.8 µM
CCCC(C)N1CCC(N(Cc2ccccc2)C(=O)Nc2nc3c(OC)cccc3s2)CC1 (centres unmarked) [A301],IC50,[1]; read-out: TR-FRET IC50,> 86.1 µM
O=C(Nc1cc(F)cc(C(F)(F)F)c1)N(Cc1ccccc1)C1CCN(Cc2cncn2Cc2ccccc2)CC1 [A208],IC50,[1]; read-out: TR-FRET IC50,> 21.1 µM
O=C(Nc1ccc(CN2CCCCC2)cc1)Nc1cc(C(F)(F)F)ccc1Cl [B29],IC50,[1]; read-out: TR-FRET IC50,> 50.3 µM
COc1ccccc1NC(=O)N(CCCN1CCC(C)CC1)C1CCN(C(C)=O)CC1 [B96],IC50,[1]; read-out: TR-FRET IC50,> 67.6 µM
CCc1cccc(NC(=O)C2CCN(C(=O)N3CC(CC)Oc4ccccc43)CC2)c1 (centres unmarked) [C56],IC50,[1]; [8],> 67.6 µM
"CCCN1CCC(N(CCC)C(=O)Nc2cccc(C(F)(F)F)c2)CC1 [A167, 1-Propyl-1-(1-Propylpiperidin-4-yl)-3-(3-(Trifluoromethyl)Phenyl)Urea]",IC50,[1]; read-out: TR-FRET IC50,10.5 µM
COCC(=O)N1CCC(C(=O)Nc2ccc(-c3cc4ccccc4[nH]3)cc2)CC1 [C46],IC50,[1]; [8],> 67.6 µM
CCCC(C)N1CCC(N(Cc2ccccc2)C(=O)Nc2cccc(C)c2C)CC1 (centres unmarked) [A271],IC50,[1]; read-out: TR-FRET IC50,> 67.5 µM
CCCC(C)N1CCC(N(Cc2ccccc2)C(=O)Nc2ccc(CN3CCCC3)cc2)CC1 (centres unmarked) [A247],IC50,[1]; read-out: TR-FRET IC50,> 58.5 µM
COc1ccc(Cl)cc1NC(=O)C1CCN(C(=O)c2ccccc2F)CC1 [C42],IC50,[1]; [8],> 67.6 µM
CCc1cccc(C)c1NC(=O)C1CCN(C(=O)c2ccccc2Cl)CC1 [C37],IC50,[1]; [8],> 67.6 µM
CCC1CN(C(=O)N2CCC(C(=O)Nc3cccc(OC)c3)CC2)c2ccccc2O1 (centres unmarked) [C54],IC50,[1]; [8],> 67.6 µM
CCCC(C)N1CCC(N(Cc2ccccc2)C(=O)Nc2ccc(Cl)c(Cl)c2F)CC1 (centres unmarked) [A40],IC50,[1]; read-out: TR-FRET IC50,0.227 µM
O=C(Nc1cc(F)cc(C(F)(F)F)c1)N(Cc1ccccc1)C1CCN(Cc2ccc(Cc3ccccc3)cc2)CC1 [A211],IC50,[1]; read-out: TR-FRET IC50,> 21.8 µM
O=C(Nc1cccc(C(F)(F)F)c1)C1CCN(C(=O)c2ccco2)CC1 [C68],IC50,[1]; [8],> 75.7 µM
CCCC(C)N1CCC(N(Cc2ccccc2)C(=O)Nc2ccc(-c3ccc(OC)cc3)cc2)CC1 (centres unmarked) [A164],IC50,[1]; read-out: TR-FRET IC50,8.9 µM
CCCCN1CCC(N(Cc2ccccc2)C(=O)Nc2ccc(OC)c(Cl)c2)CC1 [A287],IC50,[1]; read-out: TR-FRET IC50,> 72.5 µM
1-Benzyl-1-(1-(Cyclohexylmethyl)Piperidin-4-yl)-3-(3-(Trifluoromethyl)Phenyl)Urea [A149],IC50,[1]; read-out: TR-FRET IC50,5.25 µM
CCCC(C)N1CCC(N(Cc2ccccc2)C(=O)Nc2cccc(S(F)(F)(F)(F)F)c2)CC1 (centres unmarked) [A25],IC50,[1]; read-out: TR-FRET IC50,0.155 µM
COc1cc(C(=O)N2CCC(C(=O)Nc3ccc(Br)cc3)CC2)cc(OC)c1OC [C24],IC50,[1]; [8],> 67.6 µM
CCCC(C)N1CCC(N(Cc2ccccc2)C(=O)Nc2cccc(N3CCOCC3)c2)CC1 (centres unmarked) [A297],IC50,[1]; read-out: TR-FRET IC50,> 83.6 µM
Cc1cccc(C(=O)NC2C(=O)Nc3c(c(C)nn3C)C2c2cccc(C)c2)c1 (centres unmarked) [F32],IC50,[1]; [9],> 67.6 µM
COc1ccc(NC(=O)C2CCN(C(=O)N3CCOc4ccccc43)CC2)cc1 [C53],IC50,[1]; [8],> 67.6 µM
CCOc1ccccc1NC(=O)N(Cc1ccc(C)o1)C1CCN(C(C)=O)CC1 [B88],IC50,[1]; read-out: TR-FRET IC50,> 67.6 µM
CCCC(C)N1CCC(N(Cc2ccccc2)C(=O)Nc2cc(Cl)cc(C(F)(F)F)c2)CC1 (centres unmarked) [A113],IC50,[1]; read-out: TR-FRET IC50,2.35 µM
